The values that follow come from patent US5128338A, “Imidazo [1,2-c] quinazoline compounds” (priority 1990, dated 1992).

In experiment [1] the target is central receptors for benzodiazepines. Nature of the experiment: Displacement of [3H]-RO 151788, rat central nervous system microsomal fractions. Conditions: corrected for DMSO, read-out: K0.5, central receptors, [^3 H]--RO 151788. The experiment is classed as binding. For orientation: In a radioligand displacement assay an active substance lowers the binding of a labelled ligand.

The subject of experiment [2] is porcine coronary. Nature of the experiment: Porcine coronary relaxation (PGF2α-precontracted coronary segments). The arrangement: species or system pig (Yucatan mini pig). The settings on record: for EC20 / EC50: Sus scrofa, 37° C., corrected for DMSO; for EC20: read-out: DE20, effect on coronary tension induced by PGF2α; for EC50: read-out: DE50, effect on coronary tension induced by PGF2α; for level of relaxation obtained as well as the 50% effect value (K0.5) obtained by displacement: overall judgement of relaxation and K0.5. On the procedure: All the products studied were dissolved in DMSO at a concentration of 10^-2 M, then diluted to the desired concentrations in the experimental media. All of the ED20, ED50 and K0.5 values were corrected for the values obtained with DMSO under the same conditions of dilution.
Coronaries were taken on the heart of pigs (Yucatan mini pig), anesthetized under stresnil and pentobarbital. Proximal segments of the coronary were placed in an organ tank filled with Ringer solution at 37° C. The segments were tightened progressively to a base tension of around 6 g and contracted by the addition of PGF2α at a concentration of 4.10^-6 M. The potential of the products of the present invention to relax the coronary artery were then tested.
All of the compounds were tested for their capacity to relax the porcine coronary precontracted by PGF2α.

Experiment [3] has as its target T1, peripheral receptors for benzodiazepines ([^3 H]-PK 11195) (Rattus norvegicus, UniProt P16257).
T1 construct: on microsomal fractions from rat heart; from tissue; host or cells: rat heart, microsomal fractions
Put plainly: Displacement of [3H]-PK 11195, rat heart microsomal fractions.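 Also: radioligand binding with bound label split from free by vacuum filtration, then quantified through liquid scintillation counting.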 Conditions: corrected for DMSO, read-out: K0.5, peripheral receptors, [^3 H]--PK 11195. It is filed as binding.

Experiment [4] deals with T2, peripheral receptors for benzodiazepines ([^3 H]-R05-4864) (Rattus norvegicus, UniProt P16257).
T2 construct: on microsomal fractions from rat heart; from tissue; host or cells: rat heart, microsomal fractions
Nature of the experiment: Displacement of [3H]-R05-4864, rat heart microsomal fractions.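 Also: Read-out is filter-retained bound radioligand, separated from free ligand by vacuum filtration over GF/C and counted by liquid scintillation, with compounds first dissolved in DMSO.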 The experiment is classed as binding. The settings on record: corrected for DMSO, read-out: K0.5, peripheral receptors, [^3 H]--RO 54864.

[5] abbreviates: porcine coronary segments, PGF2α 4.10^-6 M.

Regarding `CCN(CC)C(=O)Cn1c(=O)n2cc(C(N)=O)nc2c2ccccc21` [Example 4, 2-Aminocarbonyl-6-N,N-diethylaminocarbonylmethyl-5-oxo-5,6-dihydroimidazo[1,2-c]quinazoline], the IC50 in experiment [1] was > 100 µM; in experiment [3], 8 µM; in experiment [4], 6 µM. The EC20 in experiment [2] (setting [5]) came to 57.4 µM. Moreover, the EC50 in experiment [2] (setting [5]) worked out at 9.66 µM.
Turning to `CCN(CC)C(=O)Cn1c(=O)n2cc(-c3cccc(Cl)c3)nc2c2ccccc21` [Example 19, 2-(m-chlorophenyl)-6-N,N-diethylaminocarbonylmethyl-5-oxo-5,6-dihydroimidazo[1,2-c]quinazoline], the IC50 was > 100 µM in experiment [1], 0.058 µM in experiment [3] and 0.05 µM in experiment [4]. In experiment [2] (setting [5]), the EC20 stood at 23.6 µM. The EC50 in experiment [2] (setting [5]) amounted to 2.36 µM.
Take `CCCN(CCC)C(=O)Cn1c(=O)n2c(C)c(-c3cccc(Cl)c3)nc2c2ccccc21` [Example 32, 2-(m-chlorophenyl)-3-methyl-6-N,N-dipropylaminocarbonylmethyl-5-oxo-5,6-dihydroimidazo[1,2-c]quinazoline]: the results for the IC50 in experiment [1], in experiment [3] and in experiment [4] were > 100 µM, 0.0024 µM and 0.0031 µM, respectively. Moreover, in experiment [2], the “level of relaxation obtained as well as the 50% effect value (K0.5) obtained by displacement” value is “particularly favorable”.
In the case of `CC(C)CNC(=O)Cn1c(=O)n2cc(-c3ccccc3)nc2c2ccccc21` [Example 24, 2-phenyl-6-N-isobutylaminocarbonylmethyl-5-oxo-5,6-dihydroimidazo[1,2-c]quinazoline], the IC50 in experiment [1], in experiment [3] and in experiment [4] was > 100 µM in each case. Besides, the EC20 in experiment [2] (setting [5]) is 24.1 µM. Further, the EC50 in experiment [2] (setting [5]) is 0.99 µM.
As for `CCN(CC)C(=O)Cn1c(=O)n2cc(-c3ccc(OC)cc3)nc2c2ccccc21` [Example 17, 2-(p-methoxyphenyl)-6-N,N-diethylaminocarbonylmethyl-5-oxo-5,6-dihydroimidazo[1,2-c]quinazoline], the values for the IC50 in experiment [1], in experiment [3] and in experiment [4] were 100 µM, 0.14 µM and 0.12 µM, respectively. The EC20 in experiment [2] (setting [5]) worked out at 2.22 µM. Moreover, the EC50 in experiment [2] (setting [5]) came to 0.45 µM. Moreover, the “level of relaxation obtained as well as the 50% effect value (K0.5) obtained by displacement” value in experiment [2] is given as “particularly favorable”.
For the molecule `CCOC(=O)CCCn1c(=O)n2cc(-c3ccccc3)nc2c2ccccc21` [Example 27, 2-phenyl-6-ethoxycarbonylpropyl-5-oxo-5,6-dihydroimidazo[1,2-c]quinazoline], the IC50 in experiment [1] is 100 µM; in experiment [3], > 100 µM; in experiment [4], 60 µM. Besides, the EC20 in experiment [2] (setting [5]) is > 100 µM. Moreover, the EC50 in experiment [2] (setting [5]) was > 100 µM.
With `CCN(CC)C(=O)CCCn1c(=O)n2cc(-c3ccccc3)nc2c2ccccc21` [Example 26, 2-phenyl-6-N,N-diethylaminocarbonylpropyl-5-oxo-5,6-dihydroimidazo[1,2-c]quinazoline], the IC50 came to 100 µM in experiment [1], 10 µM in experiment [3] and 2.3 µM in experiment [4]. Besides, the EC20 in experiment [2] (setting [5]) was 45.3 µM. Also, in experiment [2] (setting [5]), the EC50 was 7.67 µM.
For the molecule `CC(C)NC(=O)Cn1c(=O)n2cc(-c3ccccc3)nc2c2ccccc21` [Example 14, 2-phenyl-6-N-isopropylaminocarbonylmethyl-5-oxo-5,6-dihydroimidazo[1,2-c]quinazoline], the IC50 in experiment [1], in experiment [3] and in experiment [4] was > 100 µM each time. Further, in experiment [2] (setting [5]), the EC20 was 386 µM. Besides, the EC50 in experiment [2] (setting [5]) worked out at 13.8 µM.
As to `CCN(CC)C(=O)Cn1c(=O)n2cc(-c3ccc(C)cc3)nc2c2ccccc21` [Example 18, 2-(p-methylphenyl)-6-N,N-diethylaminocarbonylmethyl-5-oxo-5,6-dihydroimidazo[1,2-c]quinazoline], the IC50 in experiment [1] came out at 100 µM; in experiment [3], 0.21 µM; in experiment [4] it was 0.07 µM. Moreover, the EC20 in experiment [2] (setting [5]) stood at 8.37 µM. In addition, in experiment [2] (setting [5]), the EC50 is 0.94 µM.
For the molecule `O=C(Cn1c(=O)n2cc(-c3ccccc3)nc2c2ccccc21)N1CCOCC1` [Example 16, 2-phenyl-6-morpholinocarbonylmethyl-5-oxo-5,6-dihydroimidazo[1,2-c]quinazoline], the IC50 in experiment [1], in experiment [3] and in experiment [4] was > 100 µM in each case. The EC20 in experiment [2] (setting [5]) was 12.3 µM. The EC50 in experiment [2] (setting [5]) came out at 3.49 µM.
In the case of `CCN(CC)C(=O)Cn1c(=O)n2cc(-c3ccsc3)nc2c2ccccc21` [Example 22, 2-(3-thienyl)-6-N,N-diethylaminocarbonylmethyl-5-oxo-5,6-dihydroimidazo[1,2-c]quinazoline], the figures for the IC50 in experiment [1], in experiment [3] and in experiment [4] were > 100 µM, 0.2 µM and 0.13 µM, respectively. Further, the EC20 in experiment [2] (setting [5]) amounted to 3.51 µM. For the same molecule, the EC50 in experiment [2] (setting [5]) came to 0.73 µM.
Take `CCOC(=O)c1cn2c(=O)[nH]c3ccccc3c2n1` [Example 1, 2-Ethoxycarbonyl-5-oxo-5,6-dihydroimidazo[1,2-c]quinazoline]: the IC50 in experiment [1] is 1 µM; in experiment [3] it was > 100 µM; in experiment [4] it was 61 µM. Besides, in experiment [2] (setting [5]), the “Effect on coronary tension induced by PGF2α (in words)” value is reported as “No effect”.
Regarding `CCN(CC)C(=O)Cn1c(=O)n2cc(-c3ccco3)nc2c2ccccc21` [Example 21, 2-(2-furyl)-6-N,N-diethylaminocarbonylmethyl-5-oxo-5,6-dihydroimidazo[1,2-c]quinazoline], the IC50 in experiment [1] is > 100 µM; in experiment [3], 0.26 µM; in experiment [4], 0.58 µM. Moreover, the EC20 in experiment [2] (setting [5]) was 3.89 µM. In experiment [2] (setting [5]), the EC50 worked out at 1 µM.
As to `CCN(CC)C(=O)Cn1c(=O)n2cc(-c3ccc(Cl)cc3)nc2c2ccccc21` [Example 15, 2-(p-chlorophenyl)-6-N,N-diethylaminocarbonylmethyl-5-oxo-5,6-dihydroimidazo[1,2-c]quinazoline], the IC50 is > 100 µM in experiment [1], 1.5 µM in experiment [3] and ~100 µM in experiment [4]. The EC20 in experiment [2] (setting [5]) was 45.4 µM. In addition, in experiment [2] (setting [5]), the EC50 amounted to 6.12 µM.
